Values of other authors as cited in US5300300A, “Controlled release gastroresistant pharmaceutical formulations for oral administration containing bile acids and their salts” (Alfa Wassermann S.p.A., priority 1991, dated 1994).

Tests used:
[1] = complete solubilization takes place only at this pH

C[C@H](CCC(=O)O)[C@H]1CC[C@H]2[C@@H]3[C@@H](O)C[C@@H]4C[C@H](O)CC[C@]4(C)[C@H]3CC[C@]12C [ursodeoxycholic acid]
dissolution in the intestine (after having crossed the stomach unabsorbed and undissolved): dissolve very slowly in the intestine | intestinal pH needed for complete solubilization and absorption (intestinal pH, completely solubilized and absorbed only when exceeded): > 8.4 pH | pH of complete solubilization [1]: 8.47 pH
